Data as given in patent publication US20260365633A1, “Novel PEM Structures for SBX” (Roche Sequencing Solutions, Inc., priority 2023, published 2026).

Key:
C4552 DNA polymerase = biological target: T1, C4552 DNA polymerase (Saccharolobus solfataricus, UniProt Q97W02, A155G/A42V/D156R/D292Y/D294N/E291S/E324K/E325K/E327K/E79L/G187P/G299W/I153V/I189F/I248T/I295S/K152A/K317Q/K321Q/K56Y/K78D/L293W/M76W/N188Y/P184Q/Q82W/Q83G/R300S/S297Y/S86E/T290K/T301W/V289W/V296Q); assay: Primer extension on HIV1, HIV2, HIV3 100mer templates with C4552 polymerase, gel; format: biochemical, Sulfolobus solfataricus; conditions: 0.5 Mm PEM, 30 minutes at 23 °C, three 100mer templates, FIG. 9
T1 construct: Tth SSB in reaction as additive
T1 sequence (Q97W02 1-340 A155G/A42V/D156R/D292Y/D294N/E291S/E324K/E325K/E327K/E79L/G187P/G299W/I153V/I189F/I248T/I295S/K152A/K317Q/K321Q/K56Y/K78D/L293W/M76W/N188Y/P184Q/Q82W/Q83G/R300S/S297Y/S86E/T290K/T301W/V289W/V296Q): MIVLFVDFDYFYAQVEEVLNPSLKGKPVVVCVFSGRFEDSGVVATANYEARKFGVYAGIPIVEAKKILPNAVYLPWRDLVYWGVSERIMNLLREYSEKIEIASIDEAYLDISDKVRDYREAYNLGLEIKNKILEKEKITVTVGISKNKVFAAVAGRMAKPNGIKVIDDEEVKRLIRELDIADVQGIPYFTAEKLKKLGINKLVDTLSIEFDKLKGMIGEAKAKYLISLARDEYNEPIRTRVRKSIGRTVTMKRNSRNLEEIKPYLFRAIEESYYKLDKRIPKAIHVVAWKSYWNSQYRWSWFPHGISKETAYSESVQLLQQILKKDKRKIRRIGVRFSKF
Method: PEM activity of compounds 9-11 was tested in primer extension assays using three 100mer templates, derived from the HIV1, 2, and 3 genomes. Primer extension reactions included the following reagents: 75 Mm TrisCl, Ph 8.44, 175 Mm NH40ac, 20% PEG8K, 5% NMS, 0.8 nmol PP-60.20, 0.6 Mm MnCl2, 2.3 μg Tth single-strand binding protein (SSB), 0.5 M or 1 M urea, 200 pmol each XNTP, 1.1 pmol template, 1 pmol [COMPOUND LEFT OUT] primer, 1.2 μg purified recombinant C4552 DNA polymerase, and 0.5 Mm PEM. 10 μL primer extension reactions were run for 30 minutes at 23 °C and reaction products were analyzed by gel electrophoresis.

DNA polymerase [1] = assay: Primer extension with XNTPs, gel electrophoresis (PEM screen, 45mer template); format: biochemical; conditions: for primer extension products with XNTPs: 45mer template, FIG. 4, vs no PEM additive (up to only around 14 XNTPs)
Source text: The Sequencing by Expansion (SBX) methodology developed by the inventors provides significant performance enhancements in sequence read efficiency and accuracy of Xpandomers relative to native DNA. However, initial transcription of the sequence of the natural DNA template onto the measurable Xpandomer relies on the ability of DNA polymerase to utilize XNTPs as substrates (the generalized structure of an XNTP is discussed herein with reference to FIG. 1A and FIG. 2). […] In an effort to improve the efficiency and accuracy of XNTP polymerization into Xpandomers, several PEMs were screened for the ability to enhance DNA polymerase primer extension reactions using XNTPs as substrates.
A representative primer extension reaction may include the following reagents: 2 pmol primer, 2.2 pmol 45mer [COMPOUND LEFT OUT] template, 50 pmol of each XNTP (XATP, XCTP, XGTP, and XTTP), 50 Mm Tris HCl, Ph 6.79, 200 Mm NaCl, 20% PEG, 5% NMS, 0.5 nmol polyphosphate 60.19, 0.3 Mm MnCl2, and 0.6 μg of purified recombinant DNA polymerase protein. Reactions may be run for 1 hour at 23 °C. Reaction products (i.e., constrained Xpandomers) are treated to cleave the phosphoramidate bonds, thereby generating linearized Xpandomers. Reaction products may be analyzed using gel electrophoresis on 4-12% acrylamide gels to resolve and visualize Xpandomer products of different lengths. For the PEM screen described above, PEMs were typically tested in the micro to millimolar range.

nucleic acid polymerase = assay: PEM activity summary: primer extension on 45mer, 100mer, 150mer, 222mer DNA templates, gel (Table 2); format: biochemical; conditions: preliminary functional characterization
Method: In some instances, the PEM compounds of the present disclosure were tested in primer extension reactions using DNA templates of the following lengths: A) 45mer; B) 100mer; C) 150mer; and D) 222mer.

DNA polymerase [2] = assay: SBX nanopore sequencing of primer extension products, histogram of aligned reads; format: biochemical
Source text: To investigate the accuracy of PEM-dependent enhancement of XNTP polymerization, primer extension products were sequenced using the SBX protocol. Briefly, the constrained Xpandomer products of XNTP polymerization are cleaved to generate linearized Xpandomers. This is accomplished by first quenching the extension reaction with a solution containing 100 Mm EDTA, 2 Mm THPTA, and 2% Tween-20. Then the sample is subjected to amine modification with a solution of 1 M NaHCO3 and 1 M succinic anhydride in DMF. Cleavage of the phosphoramidate bonds is carried out with 37% HCl and linearized Xpandomers are purified with QIAquick columns (QIAGEN, Inc.).
For sequencing, protein nanopores are prepared by inserting a-hemolysin into a DphPE/hexadecane bilayer member in buffer B1, containing 2 M NH4Cl and 100 Mm HEPES, Ph 7.4. The cis well is perfused with buffer B2, containing 0.4 M NH4Cl, 0.6 M GuCl, and 100 Mm HEPES, Ph 7.4. The Xpandomer sample is heated to 70 °C for 2 minutes, cooled completely, then a 2 μL sample is added to the cis well. A voltage pulse of 90Mv/390Mv/10 μs is then applied and data is acquired via Labview acquisition software.
Sequence data is analyzed by histogram display of the population of sequence reads from a single SBX reaction. […] Representative histograms of SBX sequencing of a 45mer template are presented in FIG. 6A (no additive control) and FIG. 6B (SBX in the presence of PEM compound 1).

Structure (SMILES) | primer extension products with XNTPs (DNA polymerase [1]) | Functional Category: PEM effect (nucleic acid polymerase) | other results
COc1cc(-c2cn(-c3ccc(C(=O)O)c(O)c3)nn2)nc(-c2cn(-c3ccc(C(=O)O)c(O)c3)nn2)c1 [Compound 9, 4,4′-((4-methoxypyridine-2,6-diyl)bis(1H-1,2,3-triazole-4,1-diyl))bis(2-hydroxybenzoic acid)] |  |  | XNTP polymerization efficiency relative to compound 1 (C4552 DNA polymerase): at least as efficiently as compound 1
O=C(O)c1ccc(-n2cc(-c3ccc4[nH]c5ccc(-c6cn(-c7ccc(C(=O)O)c(O)c7)nn6)cc5c4c3)nn2)cc1O [Compound 4, 4,4′-((9H-carbazole-3,6-diyl)bis(1H-1,2,3-triazole-4,1-diyl))bis(2-hydroxybenzoic acid)] | considerably longer extension products |  | 
O=C(O)c1ccc(-n2cc(-c3cncc(-c4cn(-c5ccc(C(=O)O)c(O)c5)nn4)c3)nn2)cc1O [Compound 2, 4,4′-(pyridine-3,5-diylbis(1H-1,2,3-triazole-4,1-diyl))bis(2-hydroxybenzoic acid)] |  |  | primer extension activity with XNTPs (DNA polymerase [1]; FIG. 5, PEM at various concentrations, vs no PEM additive): significantly enhances primer extension activity
O=C(O)c1ccc(-n2cc(-c3cccc(-c4cn(-c5ccc(C(=O)O)c(O)c5)nn4)c3)nn2)cc1O [Compound 3, 4,4′-(1,3-phenylenebis(1H-1,2,3-triazole-4,1-diyl))bis(2-hydroxybenzoic acid)] | considerably longer extension products |  | 
CCNC(=O)c1cc(-c2cn(-c3ccc(C(=O)NCC(=O)NCC(=O)O)c(C(F)(F)F)c3)nn2)nc(-c2cn(-c3ccc(C(=O)NCC(=O)NCC(=O)O)c(C(F)(F)F)c3)nn2)c1 [Compound 113, 2,2′-((2,2′-((4,4′-((4-(ethylcarbamoyl)pyridine-2,6-diyl)bis(1H-1,2,3-triazole-4,1-diyl))bis(2-(trifluoromethyl)benzoyl))bis(azanediyl))bis(acetyl))bis(azanediyl))diacetic acid] |  | PEM effect | 
O=C(O)c1ccc(-n2cc(-c3cccc(-c4cn(-c5ccc(C(=O)O)c(O)c5)nn4)c3)nn2)cc1 [Compound 176, 4-(4-{m-[1-(p-Carboxyphenyl)-1H-1,2,3-triazol-4-yl]phenyl}-1H-1,2,3-triazol-1-yl)-2-hydroxybenzoic acid] |  | PEM effect | 
O=C(O)c1ccc(-n2cc(-c3cc([N+](=O)[O-])cc(-c4cn(-c5ccc(C(=O)O)c(O)c5)nn4)n3)nn2)cc1O [Compound 11, 4,4′-((4-nitropyridine-2,6-diyl)bis(1H-1,2,3-triazole-4,1-diyl))bis(2-hydroxybenzoic acid)] |  |  | XNTP polymerization efficiency relative to compound 1 (C4552 DNA polymerase): at least as efficiently as compound 1
CCNC(=O)c1cc(-c2cn(-c3ccc4cc(C(=O)O)ccc4c3)nn2)nc(-c2cn(-c3ccc4cc(C(=O)O)ccc4c3)nn2)c1 [Compound 206, 6-(4-{6-[1-(6-Carboxy-2-naphthyl)-1H-1,2,3-triazol-4-yl]-4-(N-ethylcarbamoyl)-2-pyridyl}-1H-1,2,3-triazol-1-yl)-2-naphthoic acid] |  | PEM effect | 
CCNC(=O)c1cc(-c2cn(-c3ccc(C(=O)NCC)c(C(F)(F)F)c3)nn2)nc(-c2cn(-c3ccc(C(=O)NCC)c(C(F)(F)F)c3)nn2)c1 [Compound 236, N-Ethyl-2,6-bis{1-[4-(N-ethylcarbamoyl)-3-(trifluoromethyl)phenyl]-1H-1,2,3-triazol-4-yl}isonicotinamide] |  | PEM effect | 
O=C(O)c1ccc(-n2cc(-c3cccc(-c4cn(-c5ccc(C(=O)O)c(O)c5)nn4)n3)nn2)cc1O [Compound 1, 4,4′-(pyridine-2,6-diylbis(1H-1,2,3-triazole-4,1-diyl))bis(2-hydroxybenzoic acid)] | considerably longer extension products |  | accuracy of sequence reads (DNA polymerase [2]; 45mer template, FIG. 6B, vs no additive (not accurate past around base 18)): increased the accuracy of the sequence reads across the entire length of the 45mer template; sequence reads (DNA polymerase [2]; 60mer template, FIG. 7A): accurate sequence reads completely to the end; sequence reads (DNA polymerase [2]; 80mer template, FIG. 7B): accurate sequence reads completely to the end
